Data from US20060057657A1, “Stem cell selection and differentiation” (Oregon Health & Science University Technology & Research …, priority 2002, published 2006).

Columns and labels:
Assay type in all cases: cell-based, mouse
[1] = system: ES cells; assay: ES cell proliferation rate / doubling time under treatment
Protocol: If grown in galactose as the sole carbon source, a sub-population of cells need to engage in active oxidative phosphorylation to convert galactose to glucose. In one embodiment, ES cells are selected in galactose-containing culture medium for an incubation period of about four days.
(§1) In order to establish the relationship between ES cell JC-1 fluorescence, respiration and differentiation permissiveness, cells may be grown under hypoxic (<2% oxygen) or normnoxic conditions and assayed for JC-1 red/green ratio, oxygen consumption and lactate secretion, proliferation rate, ES cell self-renewal (STAT3 activity), and differentiation permissiveness by chimeric assays. ES cells with high mitochondrial membrane potential (as shown by high JC-1 red/green ratio) display low differentiation permissiveness, while those with low mitochondrial membrane potential (JC-1 green) display high differentiation permissiveness. […] ES cells on galactose also consume about 50% more oxygen than those sustained on glucose. ES cell proliferation rates for control and hypoxic cells (both with and without LIF) may be similar. […] STAT3 activity may be similar for normoxic and hypoxic cells.

[2] = system: ES cells; assay: Lactate secretion of ES cells; settings: after 24 hours; normoxic and hypoxic ES cells about 80 mg/dl
From the text: as §1

[3] = system: ES cells; assay: Oxygen consumption of ES cells; settings: ES cells on galactose
From the text: as §1

[4] = system: ES cells; assay: JC-1 red/green fluorescence (mitochondrial membrane potential) by flow analysis; settings: galactose-containing culture medium, about four days
Protocol: In order to assess if cells are primarily using oxidative phosphorylation or glycolysis, mitochondrial inner-membrane potential can be assayed by JC-1 fluorescence (1 ug/ml) in ES cells grown in both the presence (undifferentiated) and absence (differentiation) of LIF.
The cells of Example 1 were stained with 1 μg/ml 5,5′,6,6′-tetrachloro-1,1′,3,3′-tetraethyl-benzimidazolylcarbocyanine iodide (JC-1, Molecular Probes, Eugene, Oreg.) and flow cytometry was performed using a FACSCalibur flow cytometer (Becton Dickinson, San Jose, Calif.). Cells were stained as above and sorted using a FACSVantage SE cell sorter (Becton Dickinson).

[5] = system: ES cells; assay: JC-1 fluorescence sensitivity to MDR inhibitors (JC-1 staining and flow cytometry); settings: CsA 20 μM, verapamil 200 μM, reserpine 10 μM
Protocol: ES cells were maintained in ES cell media consisting of DMEM (no pyruvate, high glucose) (Gibco-BRL), 15% fetal calf serum (FCS) (Hyclone), and supplements (as described in Robertson, E. J. (1987) IRL Press Limited, Oxford, page 71-112). Supplemental Leukemia Inhibitory Factor (LIF) (1:1000 dilution) was prepared by transfecting COS-7 cells (ATCC) with a LIF expression vector, pCAGGS-LIF, then collecting and testing the supernatant 48 hours later (as described in Smith, A. (1991) Journal of Tissue Culture Methods 13:89-94). Irradiated mouse embryonic fibroblasts (MEFs) were derived from d13 embryos for use as feeder cells (as described in Robertson (1987) (supra)). […]
For MDR inhibitor dose response assays, cells were trypsinized for 15 minutes, quenched with ES cell media, triturated to a single cell suspension, and centrifuged at 1000 rpm for 5 minutes. […] Following centrifugation, cells were washed […] with cold HBSS, centrifuged and resuspended in cold PBS at the same concentration, placed on ice, and analyzed within 60 minutes (as described in Cossarizza et al. (1993) Biochem. Biophys. Res. Commun. 197:40-45). […]
Using the cationic fluorescent dye, JC-1, functionally distinct populations of ES cells were identified. […] Generally, less than 5% of the cells maintained a “JC-1 green only” fluorescence profile when treated with any of these inhibitors. […]

**Q.** With `O=CC[C@@H](O)[C@H](O)[C@H](O)CO` [2-dG, 2-deoxy glucose] as the molecule, how does the “reduction of proliferation rate” value ([1]; 2-deoxy glucose 0.5 mM) read?
**A.** The value was at most 3 fold.

**Q.** With `O=C[C@H](O)[C@@H](O)[C@@H](O)[C@H](O)CO` [galactose] as the molecule, how does the lactate secretion [2] read?
**A.** Its lactate secretion is under 10 mg/dL.

**Q.** What about the “oxygen consumption, more than cells sustained on glucose” value [3] of the same molecule?
**A.** Its value is “about 50%”.

**Q.** And the “sub-population of ES cells showing JC-1 red fluorescence” value [4]?
**A.** Its value is “slightly increased”.

**Q.** And the “increase of doubling time” value ([1]; galactose-containing culture medium, about four days)?
**A.** Its value is “about 25%”.

**Q.** What about the doubling time ([1]; galactose-containing culture medium, about four days, 16 hours under standard conditions) of the same molecule?
**A.** The doubling time was 20 h.

**Q.** How did the “effect on proliferation rates” value ([1]; oligomycin 3 μM or FCCP+ oligomycin) turn out when `CC[C@H]1/C=C/C=C/C[C@@H](C)[C@H](O)[C@@](C)(O)C(=O)[C@@H](C)[C@H](O)[C@@H](C)C(=O)[C@@H](C)[C@H](O)[C@@H](C)/C=C/C(=O)O[C@@H]2[C@H](C)[C@H](CC1)O[C@]1(CC[C@H](C)[C@H](C[C@@H](C)O)O1)[C@H]2C` [oligomycin] was run?
**A.** The value was “dramatically reduces proliferation rates”.

**Q.** How did the “shift of JC-1 fluorescence on addition of inhibitor” value [5] turn out when `COC(=O)[C@H]1[C@H]2C[C@@H]3c4[nH]c5cc(OC)ccc5c4CCN3C[C@H]2C[C@@H](OC(=O)c2cc(OC)c(OC)c(OC)c2)[C@@H]1OC` [reserpine] was run?
**A.** Its value is “dramatic shift of the majority of cells towards red fluorescence”.

**Q.** For `COc1ccc(CCN(C)CCCC(C#N)(c2ccc(OC)c(OC)c2)C(C)C)cc1OC` (stereo not drawn) [verapamil], which “shift of JC-1 fluorescence on addition of inhibitor” value [5] is on record?
**A.** Its value is “dramatic shift of the majority of cells towards red fluorescence”.
